From patent publication US4340725A (priority 1979, dated 1982)
Values after ≈ are worked out from the molar mass of the structure shown.

What was measured:
[1] = tested on: Ehrlich ascites carcinoma; assay: Effect on Ehrlich ascites carcinoma; type: in vivo, ddY-strain mice; details: for LTS: ≥60 days
Description: Five male ddY-strain mice having a weight of about 20 g are used for each group as test animals; and 5×10^6 cells of Ehrlich ascites carcinoma are implanted in the animals intraperitoneally. After 24 hours following implantation or once a day for five days from 24 hours after implantation, 0.2 ml PBS suspension containing DC-38-V in various concentrations is administered intraperitoneally.
For comparison, mitomycin C is used as test compound.

[2] = Stability (solid; acidic, neutral, alkaline liquid; sun light or shielding); type: physicochemical
Excerpt: The stability of compound is illustrated in Table 1.

[3] = tested on: Sarcoma 180 solid tumor; assay: Effect on sarcoma 180 solid tumor; type: in vivo, ddY-strain mice; details: 7 days after implantation
Description: Six male ddY-strain mice having a weight of about 20 g are used for each group as test animals; and 5×10^6 cells of Sarcoma 180 ascites tumor are implanted subcutaneously in the animals. After 24 hours following implantation, 0.2 ml phosphate buffered saline (PBS) containing DC-38-V in various concentrations is administered intraperitoneally.
Then the suspension is diluted with PBS to obtain suspensions having various concentrations of test compound.
As a control, PBS solution containing Tween 80 is used. The test animals are not affected by the control solution. PBS comprises 0.8 g/dl NaCl, 0.02 g/dl KCl, […] Na2 HPO4, and 0.02 g/dl KH2 PO4 (pH 7.2).
(§1) For comparison, 0.2 ml PBS solution containing mitomycin C is administered to a group of animals intraperitoneally at the same time as the test compound.
Seven days after implantation, the average tumor volume (mm^3) and T/C (T: average tumor volume of the group treated with the test compound, C: that of control) are determined.

[4] = tested on: Escherichia coli ATCC 26; assay: in vitro antibacterial spectra, agar dilution method (pH 7.0); type: cell-based; details: ATCC26, read-out: Minimum Inhibitory Concentration (MIC)
Excerpt: (§2) The in vitro antibacterial spectra of DC-38-V determined by the agar dilution method (pH 7.0) is illustrated in the following Table 7.

[5] = tested on: Bacillus subtilis No. 10707; assay: as above; type: cell-based; details: read-out: Minimum Inhibitory Concentration (MIC)
Excerpt: as §2

[6] = tested on: Shigella sonnei ATCC 9290; assay: as above; type: cell-based; details: ATCC9290, read-out: Minimum Inhibitory Concentration (MIC)
Excerpt: as §2

[7] = tested on: Staphylococcus aureus ATCC 6538 P; assay: as above; type: cell-based; details: ATCC6538, read-out: Minimum Inhibitory Concentration (MIC)
Excerpt: as §2

[8] = tested on: Klebsiella pneumoniae ATCC 10031; assay: as above; type: cell-based; details: ATCC10031, read-out: Minimum Inhibitory Concentration (MIC)
Excerpt: as §2

[9] = tested on: Salmonella typhosa ATCC 9992; assay: as above; type: cell-based; details: Salmonella enterica, read-out: Minimum Inhibitory Concentration (MIC)
Excerpt: as §2

[10] = tested on: MH 134 ascites tumor; assay: Effect on MH 134 ascites tumor; type: in vivo, C3H-strain mice; details: for Long term survivors (LTS): ≥40 days
Description: Six male C3H-strain mice having a weight of about 20 g are used for each group as test animals; and 5×10^6 cells of MH 134 ascites tumor are implanted in the animals intraperitoneally. After 24 hours following implantation, 0.2 ml PBS suspension containing DC-38-V in various concentrations is administered intraperitoneally.
as §1

[11] = tested on: Lymphocytic leukemia P-388 tumor; assay: Effect on Lymphocytic leukemia P-388 tumor; type: in vivo, CDF1 mice
Description: Five male CDF1 mice having a weight of about 22 g are used for each group as test animals; and 1×10^6 cells of Lymphocytic leukemia P-388 tumor are implanted intraperitoneally in the test animals. Twenty-four hours following implantation, 0.2 ml PBS solution containing DC-38-V in various concentrations is administered intraperitoneally.
For comparison, 0.2 ml PBS solution containing mitomycin C is administered to a group of test animals intraperitoneally at the same time as the test compound.

[12] = acute toxicity; details: mouse, in vivo, ip; mice, intraperitoneally
Description: The acute toxicity (LD50) of DC-38-V is >1000 mg/kg when the test compound is administered intraperitoneally to mice.

[13] = Solubility of DC-38-V; type: physicochemical
[14] = 25 × 5 mg/kg i.p., once a day for five days
[15] = 50 × 5 mg/kg i.p., once a day for five days
[16] = 100 × 5 mg/kg i.p., once a day for five days

## C=Cc1cc(OC)c2c(c1)c(=O)oc1c2cc(OC)c2c(O)ccc(C3OC(C(C)O)C(O)C3O)c21 (stereo not shown) [DC-38-V]
[1]; [14]
  ILS: > 315%
  MST: > 49.8 days
  LTS: 3/5
[1]; 50 × 1 mg/kg i.p.
  ILS: 114%
  MST: 17.4 days
  LTS: 0/5
[1]; [15]
  ILS: > 358%
  MST: > 56.6 days
  LTS: 4/5
[1]; 100 × 1 mg/kg i.p.
  ILS: > 202%
  MST: > 30.6 days
  LTS: 1/5
[1]; [16]
  ILS: > 380%
  MST: > 60 days
  LTS: 5/5
[1]; 200 × 1 mg/kg i.p.
  ILS: > 264%
  MST: > 40.2 days
  LTS: 2/5
[1]; 400 × 1 mg/kg i.p.
  ILS: > 275%
  MST: > 41.8 days
  LTS: 2/5
[2]; Liquid acidic, shielding
  Stability: stable
[2]; Liquid alkaline, shielding
  Stability: unstable
[2]; Liquid alkaline, sun light
  Stability: unstable
[2]; Liquid neutral, shielding
  Stability: stable
[2]; Solid, shielding
  Stability: stable
[2]; Solid, sun light
  Stability: unstable
[3]; 100 mg/kg i.p.
  T/C (average tumor volume): 0.76
  average tumor volume (V): 1,085 mm^3
[3]; 200 mg/kg i.p.
  T/C (average tumor volume): 0.62
  average tumor volume (V): 874 mm^3
[3]; 400 mg/kg i.p.
  T/C (average tumor volume): 0.40
  average tumor volume (V): 562 mm^3
[4]
  MIC: 18.8 µg/mL (≈ 37.9 µM)
[5]
  MIC: 0.0375 µg/mL (≈ 0.0758 µM)
[6]
  MIC: > 75 µg/mL
[7]
  MIC: 0.0375 µg/mL (≈ 0.0758 µM)
[8]
  MIC: > 75 µg/mL
[9]
  MIC: > 75 µg/mL
[10]; 100 mg/kg i.p.
  ILS: > 184%
  MST: > 31.5 days
  Long term survivors (LTS): 3/6
[10]; 200 mg/kg i.p.
  ILS: > 310%
  MST: > 53.0 days
  Long term survivors (LTS): 6/6
[10]; 400 mg/kg i.p.
  ILS: > 231%
  MST: > 39.5 days
  Long term survivors (LTS): 2/6
[11]; 50 mg/kg i.p.
  increased life span (ILS): 138%
  mean survival time (MST): 13.4 days
[11]; 100 mg/kg i.p.
  increased life span (ILS): 141%
  mean survival time (MST): 14.5 days
[11]; 200 mg/kg i.p.
  increased life span (ILS): 155%
  mean survival time (MST): 16.0 days
[11]; 400 mg/kg i.p.
  increased life span (ILS): 162%
  mean survival time (MST): 16.7 days
[12]
  LD50: > 1000 mg/kg
[13]; acetone
  Solubility: slightly soluble
[13]; benzene
  Solubility: slightly soluble
[13]; chloroform
  Solubility: slightly soluble
[13]; dimethylformamide
  Solubility: soluble
[13]; dimethylsulfoxide
  Solubility: soluble
[13]; ether
  Solubility: almost insoluble
[13]; ethyl acetate
  Solubility: slightly soluble
[13]; methanol
  Solubility: slightly soluble
[13]; petroleum ether
  Solubility: almost insoluble
[13]; pyridine
  Solubility: soluble
[13]; tetrahydrofuran
  Solubility: soluble
[13]; water
  Solubility: almost insoluble

## CO[C@@]12[C@H](COC(N)=O)C3=C(C(=O)C(C)=C(N)C3=O)N1C[C@@H]1N[C@@H]12 [Mitomycin C, mitomycin C, reference compound]
[1]; 2.1 × 1 mg/kg
  ILS: 122%
  MST: 18.6 days
  LTS: 0/5
[1]; 4.2 × 1 mg/kg
  ILS: > 203%
  MST: > 30.8 days
  LTS: 1/5
[1]; 5.6 × 1 mg/kg
  ILS: 122%
  MST: 18.6 days
  LTS: 0/5
[3]; 4.2 mg/kg i.p.
  T/C (average tumor volume): 0.37
  average tumor volume (V): 529 mm^3
[10]; 1.05 mg/kg i.p.
  ILS: 106%
  MST: 18.1 days
  Long term survivors (LTS): 0/6
[10]; 2.1 mg/kg i.p.
  ILS: 116%
  MST: 19.8 days
  Long term survivors (LTS): 0/6
[10]; 4.2 mg/kg i.p.
  ILS: 120%
  MST: 20.5 days
  Long term survivors (LTS): 0/6
[10]; 8.4 mg/kg i.p.
  ILS: 55%
  MST: 9.4 days
  Long term survivors (LTS): 0/6
[11]; 4.2 mg/kg i.p.
  increased life span (ILS): 160%
  mean survival time (MST): 16.5 days
